Key:
[1] = target: T1, wild-type ALK2 (aa172-499) (Homo sapiens (Human), UniProt Q04771); test: ADPGlo biochemical autophosphorylation assay, ALK2; conditions: 15 μm ATP, 60 min at 32° C.
[2] = target: ALK3 (aa198-525) (Homo sapiens (Human), UniProt P36894); test: ADPGlo biochemical autophosphorylation assay, ALK3; conditions: 15 μm ATP, 60 min at 32° C.
[3] = target: T1, wild-type ALK2 (aa172-499); test: Caliper biochemical peptide phosphorylation assay, ALK2; conditions: 15 μm ATP, 60 min at 30° C.; read-out: ALK2 EPK (IC50)
[4] = target: ALK1 (aa166-493) (Homo sapiens (Human), UniProt P37023); test: Caliper biochemical peptide phosphorylation assay, ALK1; conditions: 15 μm ATP, 60 min at 30° C.; read-out: ALK1 EPK (IC50)
[5] = target: ALK5 (aa162-503) (Homo sapiens (Human), UniProt P36897); test: Caliper biochemical peptide phosphorylation assay, ALK5; conditions: 15 μm ATP, 60 min at 30° C.; read-out: ALK5 EPK (IC50)
[6] = target: ALK6 (aa168-495) (Homo sapiens (Human), UniProt O00238); test: Caliper biochemical peptide phosphorylation assay, ALK6; conditions: 15 μm ATP, 60 min at 30° C.; read-out: ALK6 EPK (IC50)
[7] = tested on: BMP response element (BRE) luciferase reporter in HuH7 cells, BMP6 stimulated; test: BMP signaling reporter gene assay; assay type: cell-based; conditions: Homo sapiens, Huh-7; HuH7 BRE-luciferase, BMP6 100 ng/ml, 5 hours; read-out: MSD BMP RGA IC50

T1 sequence (Q04771 172-499): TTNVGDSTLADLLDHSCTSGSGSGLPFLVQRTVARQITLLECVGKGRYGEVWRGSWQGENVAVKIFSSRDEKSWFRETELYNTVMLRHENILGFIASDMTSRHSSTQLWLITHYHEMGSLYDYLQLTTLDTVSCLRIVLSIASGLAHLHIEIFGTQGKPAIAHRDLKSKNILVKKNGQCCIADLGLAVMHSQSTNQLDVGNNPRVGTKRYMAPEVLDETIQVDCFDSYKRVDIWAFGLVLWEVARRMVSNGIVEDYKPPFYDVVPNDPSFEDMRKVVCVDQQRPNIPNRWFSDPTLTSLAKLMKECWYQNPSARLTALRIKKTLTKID
ALK3 (aa198-525), sequence (P36894 198-525): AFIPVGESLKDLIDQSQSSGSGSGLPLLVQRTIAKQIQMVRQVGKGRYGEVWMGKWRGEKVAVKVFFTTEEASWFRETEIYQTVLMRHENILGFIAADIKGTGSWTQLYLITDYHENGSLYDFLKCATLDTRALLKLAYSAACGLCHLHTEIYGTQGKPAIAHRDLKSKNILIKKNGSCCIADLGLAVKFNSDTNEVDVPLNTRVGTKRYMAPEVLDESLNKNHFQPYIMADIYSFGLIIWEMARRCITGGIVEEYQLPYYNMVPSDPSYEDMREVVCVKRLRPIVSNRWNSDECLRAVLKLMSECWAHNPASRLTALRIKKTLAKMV
ALK5 (aa162-503), sequence (P36897 162-503): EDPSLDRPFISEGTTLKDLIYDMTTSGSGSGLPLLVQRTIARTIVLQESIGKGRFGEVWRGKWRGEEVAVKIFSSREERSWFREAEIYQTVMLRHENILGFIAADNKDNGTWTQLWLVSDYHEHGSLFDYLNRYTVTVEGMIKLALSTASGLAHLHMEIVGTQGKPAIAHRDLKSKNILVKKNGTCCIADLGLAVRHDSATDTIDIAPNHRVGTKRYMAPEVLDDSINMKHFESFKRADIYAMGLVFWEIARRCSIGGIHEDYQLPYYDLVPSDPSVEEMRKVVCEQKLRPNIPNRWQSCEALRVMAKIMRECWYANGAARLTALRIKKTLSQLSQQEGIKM
ALK1 (aa166-493), sequence (P37023 166-493): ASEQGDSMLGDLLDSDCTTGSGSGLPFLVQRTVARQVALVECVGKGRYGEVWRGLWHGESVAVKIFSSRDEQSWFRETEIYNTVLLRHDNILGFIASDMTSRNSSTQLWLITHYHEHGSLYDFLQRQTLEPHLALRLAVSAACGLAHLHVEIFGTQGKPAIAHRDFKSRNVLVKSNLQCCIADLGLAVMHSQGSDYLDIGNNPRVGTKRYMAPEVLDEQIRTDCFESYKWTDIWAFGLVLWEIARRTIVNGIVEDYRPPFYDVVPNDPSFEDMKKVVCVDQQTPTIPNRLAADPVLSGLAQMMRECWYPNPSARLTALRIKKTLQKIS
ALK6 (aa168-495), sequence (O00238 168-495): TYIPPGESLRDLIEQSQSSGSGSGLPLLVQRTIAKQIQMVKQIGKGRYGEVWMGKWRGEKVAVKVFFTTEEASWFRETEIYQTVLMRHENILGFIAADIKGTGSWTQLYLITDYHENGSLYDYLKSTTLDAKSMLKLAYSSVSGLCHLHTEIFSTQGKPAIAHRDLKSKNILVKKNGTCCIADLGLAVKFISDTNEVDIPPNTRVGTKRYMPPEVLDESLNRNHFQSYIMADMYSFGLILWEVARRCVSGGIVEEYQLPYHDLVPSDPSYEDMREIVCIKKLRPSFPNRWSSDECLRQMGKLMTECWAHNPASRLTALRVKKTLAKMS

Row | IC50 [2] [nM] | IC50 [4] [nM] | IC50 [5] [nM] | Compound | IC50 [1] [nM] | IC50 [3] [nM] | IC50 [6] [nM] | IC50 [7] [nM]
1 | 1770 | 93 | 2170 | CC(C)N1C[C@H]2C[C@@]2(c2ccc(-c3cnc(N)c(C(=O)N[C@H]4CC[C@H](O)CC4)c3)cc2)C1 [Example 2, 2-amino-N-((1r,4R)-4-hydroxycyclohexyl)-5-(4-((1R,5S)-3-isopropyl-3-azabicyclo[3.1.0]hexan-1-yl)phenyl)nicotinamide] | 12 | 11 | 2500 | 21
2 | 1050 | 136 | 2130 | C[C@H](c1ccc(-c2cnc(N)c(C(=O)N[C@H]3CC[C@H](O)CC3)c2)cc1)N1CC2(COC2)C1 [Example 3, 5-(4-((R)-1-(2-oxa-6-azaspiro[3.3]heptan-6-yl)ethyl)phenyl)-2-amino-N-((1r,4R)-4-hydroxycyclohexyl)nicotinamide] | 12 | 11 | 1730 | 62
3 | 830 | 175 | 2450 | C[C@@H](c1ccc(-c2cnc(N)c(C(=O)N[C@H]3CC[C@H](O)CC3)c2)cc1)N1CC2(COC2)C1 [Example 4, 5-(4-((S)-1-(2-oxa-6-azaspiro[3.3]heptan-6-yl)ethyl)phenyl)-2-amino-N-((1r,4R)-4-hydroxycyclohexyl)nicotinamide] | 5 | 13 | 1850 | 108
4 | 1100 | 81 | 2200 | Nc1ncc(-c2ccc([C@]34C[C@H]3CN(CCCN3CCOCC3)C4)cc2)cc1C(=O)N[C@H]1CC[C@H](O)CC1 [Example 5, 2-amino-N-((1r,4S)-4-hydroxycyclohexyl)-5-(4-((1S,5R)-3-(3-morpholinopropyl)-3-azabicyclo[3.1.0]hexan-1-yl)phenyl)nicotinamide] | 7 | 10 | 2500 | 120
5 |  | 160 |  | CC(C)N1CCC(c2ccc(-c3cnc(N)c(C(=O)N[C@H]4CC[C@H](O)CC4)c3)cc2)C1 (stereo partly shown) [Example 12, 2-amino-N-((1r,4r)-4-hydroxycyclohexyl)-5-(4-(1-isopropylpyrrolidin-3-yl)phenyl)nicotinamide] |  |  |  | 
6 |  |  |  | C[C@]1(O)CC[C@H](NC(=O)c2cc(-c3ccc([C@@]45C[C@@H]4CN(C4CCOCC4)C5)cc3)cnc2N)CC1 [Example 14, 2-amino-N-((1r,4R)-4-hydroxy-4-methylcyclohexyl)-5-(4-((1R,5S)-3-(tetrahydro-2H-pyran-4-yl)-3-azabicyclo[3.1.0]hexan-1-yl)phenyl)nicotinamide] |  |  |  | 205
7 |  | 200 |  | Nc1ncc(-c2ccc(C3CCNC3)cc2)cc1C(=O)N[C@H]1CC[C@H](O)CC1 (stereo partly shown) [Example 18, 2-amino-N-((1r,4r)-4-hydroxycyclohexyl)-5-(4-(pyrrolidin-3-yl)phenyl)nicotinamide] |  |  |  | 
8 |  |  |  | Nc1ncc(-c2ccc([C@@]34C[C@@H]3CN(C3CCC(F)(F)CC3)C4)cc2)cc1C(=O)N[C@H]1CC[C@H](O)CC1 [Example 25, 2-amino-5-(4-((1R,5S)-3-(4,4-difluorocyclohexyl)-3-azabicyclo[3.1.0]hexan-1-yl)phenyl)-N-((1r,4R)-4-hydroxycyclohexyl)nicotinamide] | 9 | 18 | 3000 | 35
9 | 14600 |  | 10000 | C[C@@H]1CCCN1Cc1ccc(-c2cnc(N)c(C(=O)N[C@H]3CC[C@](C)(O)CC3)c2)cc1F [Example 46, 2-amino-5-(3-fluoro-4-(((R)-2-methylpyrrolidin-1-yl)methyl)phenyl)-N-((1r,4R)-4-hydroxy-4-methylcyclohexyl)nicotinamide] | 24 | 25 | 10000 | 
10 |  |  |  | Nc1ncc(-c2ccc([C@@]34C[C@@H]3CN(CCF)C4)cc2)cc1C(=O)NC12CCC(O)(CC1)CC2 [Example 57, 2-amino-5-(4-((1R,5S)-3-(2-fluoroethyl)-3-azabicyclo[3.1.0]hexan-1-yl)phenyl)-N-(4-hydroxybicyclo[2.2.2]octan-1-yl)nicotinamide] |  |  |  | 144
11 |  |  |  | C[C@]1(O)CC[C@H](NC(=O)c2cc(-c3ccc([C@]45C[C@H]4CN(C4CCOCC4)C5)cc3)cnc2N)CC1 [Example 62] |  |  |  | 134
12 |  | 2950 |  | C[C@@H]1CCCN1Cc1ccc(-c2cnc(N)c(C(=O)N[C@H]3CC[C@](C)(O)CC3)c2)cc1 [Example 72, 2-amino-N-((1r,4R)-4-hydroxy-4-methylcyclohexyl)-5-(4-(((R)-2-methylpyrrolidin-1-yl)methyl)phenyl)nicotinamide] |  |  |  | 
13 |  |  |  | Nc1ncc(-c2ccc([C@]34C[C@H]3CN(CCF)C4)cc2)cc1C(=O)NC12CCC(O)(CC1)CC2 [Example 73, 2-amino-5-(4-((1S,5R)-3-(2-fluoroethyl)-3-azabicyclo[3.1.0]hexan-1-yl)phenyl)-N-(4-hydroxybicyclo[2.2.2]octan-1-yl)nicotinamide] |  |  |  | 130

Row | Compound | IC50 [2] [nM] | IC50 [4] [nM] | IC50 [5] [nM] | IC50 [1] [nM] | IC50 [3] [nM] | IC50 [6] [nM] | IC50 [7] [nM]
14 | CS(=O)(=O)N1CCC(N2C[C@H]3C[C@@]3(c3ccc(-c4cnc(N)c(C(=O)N[C@H]5CC[C@H](O)CC5)c4)cc3)C2)CC1 [Example 1, 2-amino-N-((1r,4R)-4-hydroxycyclohexyl)-5-(4-((1R,5S)-3-(1-(methylsulfonyl)piperidin-4-yl)-3-azabicyclo[3.1.0]hexan-1-yl)phenyl)nicotinamide] | 310 | 75 | 560 | 5 | 9 | 740 | 76
15 | Nc1ncc(-c2ccc([C@@]34C[C@@H]3CN(C3CCOCC3)C4)cc2)cc1C(=O)N[C@H]1CC[C@H](O)CC1 [Example 19, 2-amino-N-((1r,4R)-4-hydroxycyclohexyl)-5-(4-((1R,5S)-3-(tetrahydro-2H-pyran-4-yl)-3-azabicyclo[3.1.0]hexan-1-yl)phenyl)nicotinamide] |  | 105 |  | 12 |  | 2250 | 21
16 | Nc1ncc(-c2ccc([C@@]34C[C@@H]3CN(C3CCOCC3)C4)cc2)cc1C(=O)N[C@H]1CC[C@@H](O)CC1 [Example 22, 2-amino-N-((1s,4S)-4-hydroxycyclohexyl)-5-(4-((1R,5S)-3-(tetrahydro-2H-pyran-4-yl)-3-azabicyclo[3.1.0]hexan-1-yl)phenyl)nicotinamide] |  | 250 |  | 9 | 16 | 3200 | 41
17 | Nc1ncc(-c2ccc([C@]34C[C@H]3CN(C3CCC(F)(F)CC3)C4)cc2)cc1C(=O)N[C@H]1CC[C@H](O)CC1 [Example 27, 2-amino-5-(4-((1S,5R)-3-(4,4-difluorocyclohexyl)-3-azabicyclo[3.1.0]hexan-1-yl)phenyl)-N-((1r,4S)-4-hydroxycyclohexyl)nicotinamide] |  | 135 |  | 10 | 18 | 1600 | 59
18 | Nc1ncc(-c2ccc([C@]34C[C@H]3CN(C3CCOCC3)C4)cc2)cc1C(=O)N[C@H]1CC[C@H](O)CC1 [Example 33] |  | 220 |  | 10 | 20 | 2000 | 26
